Data reported in patent US20250352559A1, “Transdermal Delivery Composition for Delivery of at least one Glucose Controlling Agent, and Method of Delivering at least one Glucose Controlling Agent” (Skinvisible Pharmaceuticals, Inc., priority 2024, published 2025).

Assays:
[1] = tested on: animal models of diet-induced obesity; settings: cited from earlier work
[2] = preclinical studies, therapeutic doses; cited from earlier work
3T3-LI preadipocytes = settings: in vitro; cited from earlier work
[3] = cited from earlier work
[4] = Franz Cell study, rate of diffusion across a cellulose membrane; type: in vitro ADME; settings: after 6 hours, transdermal formulation of 1% THCV
Protocol: A transdermal formulation of 1% THCV was prepared according to Table 1. The THCV formulation was subjected to a Franz Cell study, measuring the rate of diffusion across a cellulose membrane. As illustrated by the results, after 6 hours, 6.08 mg of THCV diffused across the cellulose membrane. The total dose of THCV applied to the membrane was 11.63 mg, and this calculates to a delivered dose of 52.3% of the THCV which is unexpected.

Molecule	body weight gain, adipose tissue mass, glucose tolerance and insulin sensitivity [1]	safety profile and tolerability [2]	adipocyte differentiation and lipid accumulation (3T3-LI preadipocytes)	further results
CCCCCCc1nc(-c2ccc(Cl)cc2)n(-c2ccc(Cl)cc2Cl)n1 [LH-21]	reduce body weight gain, decrease adipose tissue mass, and improve glucose tolerance and insulin sensitivity	favorable safety profiles and are well-tolerated at therapeutic doses	inhibit adipocyte differentiation and lipid accumulation	
CCCCCc1cc(O)cc(O)c1 [Olivetol]	reduce body weight gain, decrease adipose tissue mass, and improve glucose tolerance and insulin sensitivity	favorable safety profiles and are well-tolerated at therapeutic doses	inhibit adipocyte differentiation and lipid accumulation	
Cc1c(C(=O)NN2CCCCC2)nn(-c2ccc(Cl)cc2Cl)c1-c1ccc(Cl)cc1 [rimonabant]	reduce body weight gain, decrease adipose tissue mass, and improve glucose tolerance and insulin sensitivity			clinical safety ([3]; marketed use, later withdrawn): increased risk of psychiatric adverse effects
C[C@H](NC(=O)C(C)(C)Oc1ccc(C(F)(F)F)cn1)[C@@H](Cc1ccc(Cl)cc1)c1cccc(C#N)c1 [taranabant]	reduce body weight gain, decrease adipose tissue mass, and improve glucose tolerance and insulin sensitivity			body weight and metabolic parameters in clinical trials ([3]; clinical trials for the treatment of obesity): promising results in reducing body weight and improving metabolic parameters
Tetrahydrocannabivarin [THCV]				delivered dose of the THCV ([4]; 6.08 mg of 11.63 mg applied): 52.3%; THCV diffused across the cellulose membrane ([4]; total dose applied 11.63 mg): 6.08 mg
